Measurements published in ChEMBL document CHEMBL1201862, “PubChem BioAssay data set” (2004).
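Following 48 hours of exposure in 96-well plates, responses at five concentrations were used to interpolate endpoints linearly. GI50 is the concentration that inhibits growth by half.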 Calls of active or inactive are those of the source. Cut-off read from the data, not from the text of the source: active = GI50 up to about 1.1 µM and inactive = higher.

How the values were obtained:
Assay in all cases: NCI-60 cell line screen, 48 h
EKVX = test system: EKVX
T47D = test system: T47D
HOP-62 = test system: HOP-62
K562 = test system: K562
RPMI-8226 = test system: RPMI-8226
CAKI-1 = test system: CAKI-1
Hs-578T = test system: Hs-578T
PC-3 = test system: PC-3
MDA-MB-231 = test system: MDA-MB-231
SK-MEL-28 = test system: SK-MEL-28
DU-145 = test system: DU-145
SNB-75 = test system: SNB-75
BT-549 = test system: BT-549
COLO 205 = test system: COLO 205
SR = test system: SR
MDA-MB-435 = test system: MDA-MB-435
UO-31 = test system: UO-31
A549 = test system: A549
ACHN = test system: ACHN
HOP-92 = test system: HOP-92

Measured: GI50

CC(C)(C)c1ccc(C(O)(c2ccc(C(C)(C)C)cc2)c2ccc(C(C)(C)C)cc2)cc1
inactive: EKVX > 100 µM | T47D > 100 µM | HOP-62 > 100 µM | K562 > 100 µM | RPMI-8226 52.2 µM | CAKI-1 > 100 µM | Hs-578T 70.5 µM | PC-3 > 100 µM | MDA-MB-231 > 100 µM | SK-MEL-28 > 100 µM | DU-145 > 100 µM | SNB-75 > 100 µM | BT-549 > 100 µM | COLO 205 > 100 µM | SR > 100 µM | MDA-MB-435 > 100 µM | UO-31 > 100 µM | A549 > 100 µM | ACHN > 100 µM

CCOc1ccc2nc(NC(=O)/C(CC(=O)CC(C3=C(O)c4ccccc4CC3=O)c3ccccc3)=N\O)sc2c1 (centres undefined)
inactive: EKVX > 100 µM | T47D > 100 µM | K562 > 100 µM | HOP-92 > 100 µM | RPMI-8226 > 100 µM | CAKI-1 > 100 µM | Hs-578T > 100 µM | PC-3 > 100 µM | MDA-MB-231 > 100 µM | SK-MEL-28 > 100 µM | DU-145 > 100 µM | SNB-75 52.1 µM | BT-549 > 100 µM | COLO 205 > 100 µM | SR > 100 µM | MDA-MB-435 > 100 µM | UO-31 > 100 µM | A549 > 100 µM | ACHN > 100 µM

COc1ccccc1N1C(=O)CS(=O)(=O)C1c1cccc(Oc2ccccc2)c1 (centres undefined)
inactive: EKVX 20.8 µM | T47D 15.6 µM | HOP-62 18.6 µM | K562 4.06 µM | HOP-92 10.8 µM | CAKI-1 19.9 µM | Hs-578T 19.1 µM | PC-3 12.2 µM | MDA-MB-231 15.5 µM | SK-MEL-28 17.5 µM | DU-145 23.9 µM | SNB-75 20 µM | BT-549 16.9 µM | COLO 205 16.1 µM | SR 5.57 µM | MDA-MB-435 4.26 µM | UO-31 19.9 µM | A549 18.9 µM | ACHN 19 µM

O=C1CC(=O)NC(NN2C(=O)CSC2c2ccc(Cl)cc2)=N1 (centres undefined)
inactive: T47D > 100 µM | HOP-62 24.9 µM | K562 > 100 µM | HOP-92 > 100 µM | RPMI-8226 > 100 µM | CAKI-1 > 100 µM | Hs-578T 25.6 µM | PC-3 > 100 µM | MDA-MB-231 36.7 µM | SK-MEL-28 > 100 µM | DU-145 > 100 µM | SNB-75 > 100 µM | BT-549 33.8 µM | COLO 205 > 100 µM | SR 39.2 µM | MDA-MB-435 > 100 µM | UO-31 21.3 µM | A549 > 100 µM | ACHN > 100 µM

CC(NC1=NCCO1)c1ccsc1 (centres undefined)
inactive: EKVX 54.7 µM | T47D 33.3 µM | K562 21.4 µM | HOP-92 23.6 µM | RPMI-8226 7.52 µM | CAKI-1 > 100 µM | Hs-578T 11.5 µM | PC-3 21.1 µM | MDA-MB-231 18.2 µM | SK-MEL-28 19 µM | DU-145 43.1 µM | SNB-75 13.2 µM | BT-549 31.6 µM | COLO 205 17.9 µM | SR 24.8 µM | MDA-MB-435 20.9 µM | UO-31 > 100 µM | A549 39.4 µM | ACHN 44.9 µM

O=C(CCCCCC(=O)N1CC(CCl)c2ccc([N+](=O)[O-])cc21)N1CC(CCl)c2ccc([N+](=O)[O-])cc21 (centres undefined)
inactive: EKVX > 100 µM | T47D > 100 µM | HOP-62 95.7 µM | K562 > 100 µM | HOP-92 > 100 µM | CAKI-1 > 100 µM | Hs-578T > 100 µM | PC-3 > 100 µM | MDA-MB-231 > 100 µM | DU-145 > 100 µM | SNB-75 48.1 µM | BT-549 > 100 µM | COLO 205 > 100 µM | SR 9.31 µM | MDA-MB-435 > 100 µM | UO-31 > 100 µM | ACHN > 100 µM

COc1cc(OC)c2nccc(NCCCN(C)C)c2c1[N+](=O)[O-]
inactive: T47D > 100 µM | HOP-62 > 100 µM | K562 87.9 µM | HOP-92 61.1 µM | RPMI-8226 > 100 µM | CAKI-1 > 100 µM | Hs-578T > 100 µM | PC-3 > 100 µM | MDA-MB-231 > 100 µM | SK-MEL-28 > 100 µM | DU-145 > 100 µM | SNB-75 30.9 µM | BT-549 > 100 µM | COLO 205 34.1 µM | SR 24.7 µM | MDA-MB-435 > 100 µM | UO-31 > 100 µM | A549 > 100 µM | ACHN > 100 µM

CC(=O)O[C@@H]1[C@@H](C)[C@]2(CC(c3ccoc3)OC2O)C2CCC3O[C@]3(C)[C@]2(C)[C@@H]1OC(C)=O (some centres undefined)
inactive: EKVX 56.4 µM | T47D 28.5 µM | HOP-92 34 µM | RPMI-8226 25.9 µM | CAKI-1 > 100 µM | Hs-578T 48.5 µM | PC-3 32.8 µM | MDA-MB-231 > 100 µM | SK-MEL-28 25.9 µM | DU-145 48.1 µM | SNB-75 46.7 µM | BT-549 25.2 µM | COLO 205 20.3 µM | SR 23.4 µM | MDA-MB-435 43.6 µM | UO-31 37.2 µM | A549 47.3 µM | ACHN 38 µM
